Assay results: US8338431B2, “Phosphodiesterase inhibitors” (Leo Pharma A/S, priority 2007, dated 2012)

Key:
[1] = target: Human recombinant PDE4 (Genbank accession no NM—006203) (Homo sapiens, UniProt Q08499); test: PDE4 Assay (SPA, cleavage of cAMP); type: biochemical; conditions: human recombinant PDE4, 1 hour incubation, cAMP 1×10^-5M, test compound up to 10 μM; read-out: IC50 (PDE4)
Method: Human recombinant PDE4 (Genbank accession no NM_006203) was incubated for 1 hour, with the test compound at concentrations up to 10 μM, with cAMP (1×10^-5M), and with a low amount (0.021 MBq) of radioactively labelled cAMP. At the end of the incubation, the cleavage of the substrate was evaluated by the binding of the AMP product to SPA beads, which generate […] when bound to the radioactive tracer. The AMP product inhibited the binding of the radioactive tracer to the beads, and the luminescent signal was competed. The results were calculated as the molar concentrations resulting in 50% inhibition of the substrate cleavage compared to controls samples, and are expressed as IC50 (M).

[2] = tested on: TNF-α release from human peripheral blood mononuclear cells (PBMC); test: TNF-α Release in LPS stimulated PBMC; type: cell-based; conditions: 30 minutes pre-incubation, stimulated 18 hours with lipopolysaccharide, TNF-α in supernatant by enzyme immunoassay
Method: Human peripheral blood mononuclear cells (PBMC) were isolated from buffy coats. The blood is mixed with saline at a ratio of 1:1, and the PBMC were isolated using Lymphoprep Tubes™ (Nycomed, Norway). The PBMC were suspended in RPMI1640 with 2% foetal calf serum (FCS), pen/strep and 2 mM L-glutamine at a concentration of […]. The cells were pre-incubated for 30 minutes with the test compounds in 96 well tissue culture plates and stimulated for 18 hours with lipopolysaccharide […] (Sigma). The level of TNF-α was measured in the culture supernatant by enzyme immunoassays using primary and secondary biotinylated antibodies from R&D systems. Results are expressed as IC50 values calculated from inhibition curves using as positive controls the secretion in LPS stimulated wells and as negative controls the secretion in unstimulated cells.

Chain of Human recombinant PDE4 (Genbank accession no NM—006203) (Q08499 1-673 isoform Q08499-2): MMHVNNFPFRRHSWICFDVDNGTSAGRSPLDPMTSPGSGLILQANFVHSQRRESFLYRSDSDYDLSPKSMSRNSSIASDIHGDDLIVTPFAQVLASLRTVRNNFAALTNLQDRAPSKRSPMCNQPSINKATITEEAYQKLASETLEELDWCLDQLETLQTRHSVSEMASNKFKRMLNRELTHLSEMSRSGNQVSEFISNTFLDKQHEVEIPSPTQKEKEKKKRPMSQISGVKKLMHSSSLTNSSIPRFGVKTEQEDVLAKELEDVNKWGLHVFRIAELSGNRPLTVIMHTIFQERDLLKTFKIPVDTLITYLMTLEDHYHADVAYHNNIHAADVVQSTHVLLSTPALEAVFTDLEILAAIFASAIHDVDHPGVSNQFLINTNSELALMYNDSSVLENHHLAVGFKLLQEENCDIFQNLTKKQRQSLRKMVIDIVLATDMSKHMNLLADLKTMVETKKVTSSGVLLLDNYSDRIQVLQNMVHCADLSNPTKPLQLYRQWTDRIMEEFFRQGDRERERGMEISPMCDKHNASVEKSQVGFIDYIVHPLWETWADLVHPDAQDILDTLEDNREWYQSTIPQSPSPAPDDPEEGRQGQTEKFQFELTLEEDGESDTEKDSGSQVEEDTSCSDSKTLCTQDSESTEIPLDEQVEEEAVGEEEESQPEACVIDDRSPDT

IC50 [1]	Structure (SMILES)	IC50 [2]
43 nM	COc1ccc(C(=O)Cc2c(Cl)c[n+]([O-])cc2Cl)c2c1OCC1(COCOC1)CO2 [Compound 131, 2-(3,5-Dichloro-1-oxido-pyridine-4-yl)-1-{9-methoxy-spiro[2H-1,5-benzodioxepin-3(4H),5′-[1,3]dioxane]-6-yl}ethanone]	16 nM
26 nM	COc1ccc(C(=O)Cc2c(Cl)cncc2Cl)c2c1OCC1(CO2)CSCSC1 [Compound 132, 2-(3,5-Dichloropyridin-4-yl)-1-{9-methoxy-spiro[2H-1,5-benzodioxepin-3(4H),5′-[1,3]dithiane]-6-yl}ethanone]	29 nM
